The test system of the first experiment is GST-Braf kinase domain and biotinylated E3 substrate adapter (VHL/EloB/EloC complex or CRBN318-425). The experiment in a line: Dimerization assay (AlphaScreen/AlphaLisa), RAF/E3 dimerization. The class given is binding. Conditions: Table 15; relative value; compounds 4 fold serial dilutions from 20 μM. (In general: Alpha assays give light when donor and acceptor beads are brought close together.)
As for `Cc1ncc(NC(=O)c2cccc(C(F)(F)F)c2)cc1-c1cnc(OCCCc2cn(CCCCCC(=O)Nc3cccc4c3C(=O)N(C3CCC(=O)NC3=O)C4=O)nn2)c(N2CCOCC2)c1` (stereo not drawn) [Compound 1.003, N-(6′-(3-(1-(6-((2-(2,6-dioxopiperidin-3-yl)-1,3-dioxoisoindolin-4-yl)amino)-6-oxohexyl)-1H-1,2,3-triazol-4-yl)propoxy)-2-methyl-5′-morpholino-[3,3′-bipyridin]-5-yl)-3-(trifluoromethyl)benzamide], the RAF/E3 Dimerization result is “+ +”.

On to `Cc1ncc(NC(=O)c2cccc(C(F)(F)F)c2)cc1-c1cnc(OCCOCCOCCOCCOCCOCc2cn(CCCCCC(=O)Nc3cccc4c3C(=O)N(C3CCC(=O)NC3=O)C4=O)nn2)c(N2CCOCC2)c1` (stereo not drawn) [Compound 1.008, N-(6′-((1-(1-(6-((2-(2,6-dioxopiperidin-3-yl)-1,3-dioxoisoindolin-4-yl)amino)-6-oxohexyl)-1H-1,2,3-triazol-4-yl)-2,5,8,11,14-pentaoxahexadecan-16-yl)oxy)-2-methyl-5′-morpholino-[3,3′-bipyridin]-5-yl)-3-(trifluoromethyl)benzamide], for which the RAF/E3 Dimerization result is on record as “+ + +”.

Take `Cc1ncc(NC(=O)c2cccc(C(F)(F)F)c2)cc1-c1cnc(OCCOCCOCCOCc2cn(CCCCCC(=O)Nc3cccc4c3C(=O)N(C3CCC(=O)NC3=O)C4=O)nn2)c(N2CCOCC2)c1` (stereo not drawn) [Compound 1.007, N-(6′-(2-(2-(2-((1-(6-((2-(2,6-dioxopiperidin-3-yl)-1,3-dioxoisoindolin-4-yl)amino)-6-oxohexyl)-1H-1,2,3-triazol-4-yl)methoxy)ethoxy)ethoxy)ethoxy)-2-methyl-5′-morpholino-[3,3′-bipyridin]-5-yl)-3-(trifluoromethyl)benzamide]: the RAF/E3 Dimerization entry was “+ + +”.

The experiment is the same for the next values; noted with them: Table 17; relative value; compounds 4 fold serial dilutions from 20 μM.
Consider `Cc1ncc(NC(=O)c2cccc(C(F)(F)F)c2)cc1-c1cnc(OCCOCCOCCOCc2cn(CCCCC(=O)N[C@@H](C(=O)N3C[C@H](O)C[C@H]3C(=O)N[C@@H](C)c3ccc(-c4scnc4C)cc3)C(C)(C)C)nn2)c(N2CCOCC2)c1` [Compound 2.009, (2S,4R)-1-((R)-3,3-dimethyl-2-(5-(4-((2-(2-(2-((2′-methyl-5-morpholino-5′-(3-(trifluoromethyl)benzamido)-[3,3′-bipyridin]-6-yl)oxy)ethoxy)ethoxy)ethoxy)methyl)-1H-1,2,3-triazol-1-yl)pentanamido)butanoyl)-4-hydroxy-N—((S)-1-(4-(4-methylthiazol-5-yl)phenyl)ethyl)pyrrolidine-2-carboxamide], for which the “RAF/E3 Dimerization” value is “+++ (50% > RAF/E3 Dimerization ≥ 25)”.

Turning to `O=C1CCC(N2C(=O)c3cccc(NC(=O)CCCCCn4cc(COCCOCCOCCOCCOCCNC(=O)c5cc(Oc6ccc(NC(=O)Nc7ccc(Cl)c(C(F)(F)F)c7)cc6)ccn5)nn4)c3C2=O)C(=O)N1` (stereo not drawn) [Compound 2.028, 4-(4-(3-(4-chloro-3-(trifluoromethyl)phenyl)ureido)phenoxy)-N-(1-(1-(6-((2-(2,6-dioxopiperidin-3-yl)-1,3-dioxoisoindolin-4-yl)amino)-6-oxohexyl)-1H-1,2,3-triazol-4-yl)-2,5,8,11,14-pentaoxahexadecan-16-yl)picolinamide], the “RAF/E3 Dimerization” value is given as “++ (25% > RAF/E3 Dimerization ≥ 5%)”.

Consider `CCCCCCNC(=O)Nc1cc(-c2cc3cnc(NCCOCCOCc4cn(CCCCCC(=O)N[C@@H](C(=O)N5C[C@H](O)C[C@H]5C(=O)N[C@@H](C)c5ccc(-c6scnc6C)cc5)C(C)(C)C)nn4)nc3nc2C)c(C)cc1F` [Compound 2.039, (2S,4R)-1-((R)-2-(6-(4-((2-(2-((6-(4-fluoro-5-(3-hexylureido)-2-methylphenyl)-7-methylpyrido[2,3-d]pyrimidin-2-yl)amino)ethoxy)ethoxy)methyl)-1H-1,2,3-triazol-1-yl)hexanamido)-3,3-dimethylbutanoyl)-4-hydroxy-N—((S)-1-(4-(4-methylthiazol-5-yl)phenyl)ethyl)pyrrolidine-2-carboxamide], for which the “RAF/E3 Dimerization” value is “+++++ (RAF/E3 Dimerization ≥75%)”.

`Cc1ncsc1-c1ccc([C@H](C)NC(=O)[C@@H]2C[C@@H](O)CN2C(=O)[C@H](NC(=O)CCOCCOCCOCCOCCNC(=O)c2cc(Oc3ccc(NC(=O)Nc4ccc(Cl)c(C(F)(F)F)c4)cc3)ccn2)C(C)(C)C)cc1` [Compound 1.015, 4-(4-(3-(4-chloro-3-(trifluoromethyl)phenyl)ureido)phenoxy)-N-(17-((2S,4R)-4-hydroxy-2-(((S)-1-(4-(4-methylthiazol-5-yl)phenyl)ethyl)carbamoyl)pyrrolidine-1-carbonyl)-18,18-dimethyl-15-oxo-3,6,9,12-tetraoxa-16-azanonadecyl)picolinamide]: the “RAF/E3 Dimerization” value is on record as “+ (5% > RAF/E3 Dimerization)”.

As to `O=C1CCC(N2Cc3c(CCCCCCNC(=O)c4cc(Oc5ccc(NC(=O)Nc6ccc(Cl)c(C(F)(F)F)c6)cc5)ccn4)cccc3C2=O)C(=O)N1` (stereo not drawn) [Compound 2.031, 4-(4-(3-(4-chloro-3-(trifluoromethyl)phenyl)ureido)phenoxy)-N-(6-(2-(2,6-dioxopiperidin-3-yl)-1-oxoisoindolin-4-yl)hexyl)picolinamide], the “RAF/E3 Dimerization” value was “+ (5% > RAF/E3 Dimerization)”.

`CC(NC(=O)c1ncnc(NCc2cn(CCCCCC(=O)Nc3cccc4c3C(=O)N(C3CCC(=O)NC3=O)C4=O)nn2)c1Cl)c1ncc(C(=O)Nc2cc(C(F)(F)F)c(Cl)cn2)s1` (stereo not drawn) [Compound 2.044, N-(5-chloro-4-(trifluoromethyl)pyridin-2-yl)-2-(1-(5-chloro-6-(((1-(6-((2-(2,6-dioxopiperidin-3-yl)-1,3-dioxoisoindolin-4-yl)amino)-6-oxohexyl)-H-1,2,3-triazol-4-yl)methyl)amino)pyrimidine-4-carboxamido)ethyl)thiazole-5-carboxamide]: the “RAF/E3 Dimerization” value is given as “+ (5% > RAF/E3 Dimerization)”.
